Assays:
Helicobacter pylori = assay: Activity against Helicobacter pylori, agar dilution (method of Iwahi et al.), Columbia agar, 4 days growth; assay type: cell-based; settings: Columbia agar (Oxoid), growth period of 4 days, approximate values; for MIC50: 96 h, read-out: Appr. MIC 50
Source text: The compounds of the formula I were investigated with respect to their activity against Helicobacter pylori following the method described by Tomoyuki Iwahi et al. (Antimicrobial Agents and Chemotherapy, 1991, 490-496) using Columbia agar (Oxoid) and a growth period of 4 days.

Cc1c(SCCCSCC2CCCN(C)C2)ccnc1CNc1cnc2ccccc2c1.O=C(O)C(=O)O (stereo not shown) [Compound 11, {3-Methyl-4-[3-(1-methylpiperidin-3-ylmethylsulfanyl)propylsulfanyl]pyridin-2-ylmethyl}-quinolin-3-ylamine oxalate]
MIC50 (Helicobacter pylori): ≤ 0.1 µg/mL

Cc1c(OCCCSCc2ccncc2)ccnc1CNc1cnc2ccccc2c1 [Compound 24, {3-Methyl-4-[3-(pyridin-4-ylmethylsulfanyl)-propoxy]-pyridin-2-ylmethyl}-quinolin-3-yl-amine]
MIC50 (Helicobacter pylori): ≤ 0.1 µg/mL

Cc1c(SCCCSCCCn2cc([N+](=O)[O-])nc2C)ccnc1CNc1cnc2ccccc2c1 [Compound 18, (3-Methyl-4-{3-[3-(2-methyl-4-nitro-imidazol-1-yl)-propylsulfanyl]-propylsulfanyl}-pyridin-2-ylmethyl)-quinolin-3-yl-amine]
MIC50 (Helicobacter pylori): ≤ 0.1 µg/mL
melting point: 95 to 99 °C

Cc1c(SCC2CCCN(C)C2)ccnc1CNc1cnc2ccccc2c1 (stereo not shown) [Compound 32, [3-Methyl-4-(1-methyl-piperidin-3-ylmethylsulfanyl)-pyridin-2-ylmethyl]-quinolin-3-yl-amine]
MIC50 (Helicobacter pylori): ≤ 0.1 µg/mL
melting point: 106 to 108 °C

Cc1c(OCCCCSc2ncccn2)ccnc1CNc1cnc2ccccc2c1 [Compound 16, {3-Methyl-4-[4-(pyrimidin-2-ylsulfanyl)-butoxy]-pyridin-2-ylmethyl}-quinolin-3-yl-amine]
MIC50 (Helicobacter pylori): ≤ 0.1 µg/mL

Cc1c(SCCCSCc2ccccn2)ccnc1CNc1cnc2ccccc2c1 [Compound 29, {3-Methyl-4-[3-(pyridin-2-ylmethylsulfanyl)-propylsulfanyl]-pyridin-2-ylmethyl}-quinolin-3-yl-amine]
MIC50 (Helicobacter pylori): ≤ 0.1 µg/mL

Cc1c(SCCCN2CCN(CC3CN(Cc4ccncc4)C(=O)O3)CC2)ccnc1CNc1cnc2ccccc2c1 (stereo not shown) [Compound 27, 5-(4-{3-[3-Methyl-2-(quinolin-3-ylaminomethyl)-pyridin-4-ylsulfanyl]-propyl}-piperazin-1-ylmethyl)-3-pyridin-4-ylmethyl-oxazolidin-2-one]
MIC50 (Helicobacter pylori): ≤ 0.1 µg/mL

Cc1c(SCCSCc2ccncc2)ccnc1CNc1cnc2ccccc2c1 [Compound 8, {3-Methyl-4-[2-(pyridin-4-ylmethylsulfanyl)ethylsulfanyl]pyridin-2-ylmethyl}quinolin-3-ylamine]
MIC50 (Helicobacter pylori): ≤ 0.1 µg/mL

Cc1c(OCCOCCSCc2ccncc2)ccnc1CNc1cnc2ccccc2c1 [Compound 28, (3-Methyl-4-{2-[2-(pyridin-4-ylmethylsulfanyl)-ethoxy]-ethoxy}-pyridin-2-ylmethyl)-quinolin-3-yl-amine]
MIC50 (Helicobacter pylori): ≤ 0.1 µg/mL

Cc1c(SCCCSCC2CN(C(C)C)C(=O)O2)ccnc1CNc1cnc2ccccc2c1 (stereo not shown) [Compound 17, 3-Isopropyl-5-{3-[3-methyl-2-(quinolin-3-ylaminomethyl)-pyridin-4-ylsulfanyl]-propylsulfanylmethyl}-oxazolidin-2-one]
MIC50 (Helicobacter pylori): ≤ 0.1 µg/mL
melting point: 100 to 104 °C

Cc1c(SCCCSCC2CN(C)C(=O)O2)ccnc1CNc1cnc2ccccc2c1 (stereo not shown) [Compound 1, 3-Methyl-5-{3-[3-methyl-2-(quinolin-3-ylaminomethyl)pyridin4-ylsulfanyl]propylsulfanylmethyl}oxazolidin-2-one]
MIC50 (Helicobacter pylori): ≤ 0.1 µg/mL
melting point: 98 to 100 °C

Cc1c(SCCSCCn2c([N+](=O)[O-])cnc2C)ccnc1CNc1cnc2ccccc2c1 [Compound 9, (3-Methyl-4-{2-[2-(2-methyl-5-nitroimidazol-1-yl)ethylsulfanyl]ethylsulfanyl}pyridin-2-ylmethyl)quinolin-3-ylamine]
MIC50 (Helicobacter pylori): ≤ 0.1 µg/mL
melting point: 152 to 154 °C

Cc1c(OCCCSCCn2c([N+](=O)[O-])cnc2C)ccnc1CNc1cnc2ccccc2c1 [Compound 23, (3-Methyl-4-{3-[2-(2-methyl-5-nitro-imidazol-1-yl)-ethylsulfanyl]-propoxy}-pyridin-2-ylmethyl)-quinolin-3-yl-amine]
MIC50 (Helicobacter pylori): ≤ 0.1 µg/mL
melting point: 138 to 141 °C

Cc1c(OCCCCSCC2CCCN(C)C2)ccnc1CNc1cnc2ccccc2c1 (stereo not shown) [Compound 20, {3-Methyl-4-[4-(1-methyl-piperidin-3-ylmethylsulfanyl)-butoxy]-pyridin-2-ylmethyl}-quinolin-3-yl-amine]
MIC50 (Helicobacter pylori): ≤ 0.1 µg/mL

Cc1c(OCCSCc2ccncc2)ccnc1CNc1cnc2ccccc2c1 [Compound 21, {3-Methyl-4-[2-(pyridin-4-ylmethylsulfanyl)-ethoxy]-pyridin-2-ylmethyl}-quinolin-3-yl-amine]
MIC50 (Helicobacter pylori): ≤ 0.1 µg/mL

Cc1c(OCCSCCn2c([N+](=O)[O-])cnc2C)ccnc1CNc1cnc2ccccc2c1 [Compound 22, (3-Methyl-4-{2-[2-(2-methyl-5-nitro-imidazol-1-yl)-ethylsulfanyl]-ethoxy}-pyridin-2-ylmethyl)-quinolin-3-yl-amine]
MIC50 (Helicobacter pylori): ≤ 0.1 µg/mL
melting point: 152 to 155 °C

Cc1c(SCCCSCCO)ccnc1CNc1cnc2ccccc2c1 [Compound 25, 2-{3-[3-Methyl-2-(quinolin-3-ylaminomethyl)-pyridin-4-ylsulfanyl]-propylsulfanyl}-ethanol]
MIC50 (Helicobacter pylori): ≤ 0.1 µg/mL
melting point: 125 to 126 °C

Cc1c(OCCSCc2ccccn2)ccnc1CNc1cnc2ccccc2c1 [Compound 34, {3-Methyl-4-[2-(pyridin-2-ylmethylsulfanyl)-ethoxy]-pyridin-2-ylmethyl}-quinolin-3-yl-amine]
MIC50 (Helicobacter pylori): ≤ 0.1 µg/mL

Cc1c(OCCCCSCc2ccncc2)ccnc1CNc1cnc2ccccc2c1 [Compound 6, {3-Methyl-4-[4-(pyridin4-ylmethylsulfanyl)butoxy]pyridin-2-ylmethyl}quinolin3-ylamine]
MIC50 (Helicobacter pylori): ≤ 0.1 µg/mL

Cc1c(SCCCN2CCNCC2)ccnc1CNc1cnc2ccccc2c1 [Compound 4, [3-Methyl-4-(3-piperazin-1-ylpropylsulfanyl)pyridin-2-ylmethyl]quinolin-3-ylamine]
melting point: 105 to 108 °C

Cc1c(SCCCN2CCN(Cc3ccncc3)CC2)ccnc1CNc1cnc2ccccc2c1 [Compound 10, {3-Methyl-4-[3-(4-pyridin-4-ylmethylpiperazin-1-yl)propylsulfanyl]pyridin-2-ylmethyl}-quinolin-3-ylamine]
MIC50 (Helicobacter pylori): ≤ 0.1 µg/mL

Cc1c(SCCCSCC2CN(CC3CC3)C(=O)O2)ccnc1CNc1cnc2ccccc2c1 (stereo not shown) [Compound 19, 3-Cyclopropylmethyl-5-{3-[3-methyl-2-(quinolin-3-ylaminomethyl)-pyridin-4ylsulfanyl]-propylsulfanylmethyl}-oxazolidin-2-one]
MIC50 (Helicobacter pylori): ≤ 0.1 µg/mL
melting point: 78 to 81 °C

Cc1c(SCCOCC(F)(F)F)ccnc1CNc1cnc2ccccc2c1.Cl [Compound 36, (3-Methyl-4-{2-[2,2,2-trifluoro-ethoxy)-ethylsulfanyl}-pyridin-2-ylmethyl)-quinolin-3-yl-amine hydrochloride]
MIC50 (Helicobacter pylori): ≤ 0.1 µg/mL
melting point: 212 to 215 °C (dec.)

Cc1c(OCCCCSCCO)ccnc1CNc1cnc2ccccc2c1 [Compound 26, 2-{4-[3-Methyl-2-(quinolin3-ylaminomethyl)-pyridin-4-yloxy]-butylsulfanyl}-ethanol]
MIC50 (Helicobacter pylori): ≤ 0.1 µg/mL
melting point: 119 to 120 °C

Cc1c(OCCOCCSCc2cccnc2)ccnc1CNc1cnc2ccccc2c1 [Compound 30, (3-Methyl-4-{2-[2-(pyridin-3-ylmethylsulfanyl)-ethoxy]-ethoxy}-pyridin-2-ylmethyl)-quinolin-3-yl-amine]
MIC50 (Helicobacter pylori): ≤ 0.1 µg/mL
melting point: 84 to 86 °C

Cc1c(SCCCCSCCn2c([N+](=O)[O-])cnc2C)ccnc1CNc1cnc2ccccc2c1 [Compound 13, (3-Methyl-4-{4-[2-(2-methyl-5-nitroimidazol-1-yl)ethylsulfanylbutyl]sulfanyl}pyridin-2-yl-methyl)quinolin-3-ylamine]
Appr. MIC 50 (Helicobacter pylori): ≦0.1 μg/ml

Cc1c(OCCOCCSCc2ccccn2)ccnc1CNc1cnc2ccccc2c1 [Compound 31, (3-Methyl-4-{2-[2-(pyridin-2-ylmethylsulfanyl)-ethoxy]-ethoxy}-pyridin-2-ylmethyl)-quinolin-3-yl-amine]
MIC50 (Helicobacter pylori): ≤ 0.1 µg/mL
melting point: 65 to 67 °C

Cc1c(SCCCSCc2ccc(Cl)s2)ccnc1CNc1cnc2ccccc2c1 [Compound 14, {4-[3-(5-Chlorothiophen-2-ylmethylsulfanyl)propylsulfanyl]-3-methylpyridin-2-ylmethyl}-quinolin-3-ylamine]
MIC50 (Helicobacter pylori): ≤ 0.1 µg/mL

Cc1c(SCCCSCc2ccncc2)ccnc1CNc1cnc2ccccc2c1 [Compound 12, {3-Methyl-4-[3-(pyridin-4-ylmethylsulfanyl)propylsulfanyl]pyridin-2-ylmethyl}quinolin-3-ylamine]
MIC50 (Helicobacter pylori): ≤ 0.1 µg/mL

Cc1c(SCCCSCCn2c([N+](=O)[O-])cnc2C)ccnc1CNc1cnc2ccccc2c1 [Compound 15, (3-Methyl-4-{3-[2-(2-methyl-5-nitroimidazol-1-yl)ethylsulfanyl]propylsulfanyl}-pyridin-2-ylmethyl)quinolin-3-ylamine]
MIC50 (Helicobacter pylori): ≤ 0.1 µg/mL
melting point: 133 to 135 °C

Cc1c(OCCCCSCCn2c([N+](=O)[O-])cnc2C)ccnc1CNc1cnc2ccccc2c1 [Compound 7, (3-Methyl-4-{4-[2-(2-methyl-5-nitroimidazol-1-yl)ethylsulfanyl]butoxy}pyridin-2-ylmethyl)-quinolin-3-ylamine]
MIC50 (Helicobacter pylori): ≤ 0.1 µg/mL
melting point: 154 to 158 °C

Cc1c(OCCSCc2cccnc2)ccnc1CNc1cnc2ccccc2c1 [Compound 33, {3-Methyl-4-[2-(pyridin-3-ylmethylsulfanyl)-ethoxy]-pyridin-2-ylmethyl}-quinolin-3-yl-amine]
MIC50 (Helicobacter pylori): ≤ 0.1 µg/mL

Cc1c(SCCSCc2cccnc2)ccnc1CNc1cnc2ccccc2c1 [Compound 35, {3-Methyl-4-[2-(pyridin-3-ylmethylsulfanyl)-ethylsulfanyl]-pyridin-2-ylmethyl}-quinolin-3-yl-amine]
MIC50 (Helicobacter pylori): ≤ 0.1 µg/mL

Cc1c(SCCCSc2ncccn2)ccnc1CNc1cnc2ccccc2c1 [Compound 2, {3-Methyl4-[3-(pyrimidin-2-ylsulfanyl)propylsulfanyl]pyridin-2-ylmethyl}quinolin-3-ylamine]
MIC50 (Helicobacter pylori): ≤ 0.1 µg/mL
